These results are taken from publication PMC7866225, “Microwave-Assisted Synthesis of (Piperidin-1-yl)quinolin-3-yl)methylene)hydrazinecarbothioamides as Potent Inhibitors of Cholinesterases: A Biochemical and In Silico Approach” (Molecules, 2021).

In series [1] the target is Butyrylcholinesterase (BChE) (Equus caballus, UniProt P81908). In words: biochemical. The following applies: Ellman's method, triplicate; read-out: Butyrylcholinesterse (BChE) IC50 ± SEM. On the procedure:
(§1) Modified Ellman’s method was adopted to investigate the inhibitory potential of newly synthesized compounds against cholinesterase enzymes. The assay protocol involved 96-well plates (100 μL per well). Each well contained 20 μL of assay buffer solution, 10 μL of test sample, and 10 μL of 0.5 U/mg of AChE (for AChE inhibition assay) or 10 μL of 3.4 U/mg of BChE (for BChE inhibition assay). This mixture was incubated at 25 °C for 10 min followed by the addition of substrate (10 μL). For AChE inhibition assay, acetylthiocholine iodide (ATCI, 1 mM) while for BChE assay, butyrylthiocholine chloride (BTCCl, 1 mM), was added. This mixture was incubated for 15 min at 37 °C. Ellman reagent (5,5′-dithio-bis(2-nitrobenzoic acid), DTNB, 3 mM) was added. […] Blank assay was also performed. All the analyses were performed in triplicate. IC50 values were also calculated for the synthesized compounds in GraphPad prism 5.0. using nonlinear regression method.

Series [2] has as its target Acetylcholinesterase (AChE) (Electrophorus electricus, UniProt O42275). Kind of series: biochemical. The settings on record: Ellman's method, triplicate; read-out: Acetylcholinesterase (AChE) IC50 ± SEM. On the procedure:
as §1

Series [3] can be described thus: In vitro cytotoxicity, MTT assay. It counts as cell-based. The settings on record: human, HepG2 cells, 24 h, control = 100, read-out: Cell Viability; for viability at 24 h, 50 μg/mL: HepG2, 50 μg/mL; for viability at 24 h, 100 μg/mL: HepG2, 100 μg/mL; for viability at 24 h, 200 μg/mL: HepG2, 200 μg/mL; for viability at 24 h, 500 μg/mL: HepG2, 500 μg/mL; for viability at 24 h, 1000 μg/mL: HepG2, 1000 μg/mL. As for the experimental part:
(§2) HepG2 cell line was obtained from the cell culture laboratory established in The University of Lahore. These cell lines were preserved in cryo vials present in liquid nitrogen. Cryo vials were revived for further processing.
(§3) The cryo vials obtained from liquid nitrogen cylinder were thawed. Then HepG2 cells were cultured in the culturing flask in which DMEM-HG along with 10% fetal bovine serum (FBS), supplemented with […] (Sigma) and 100 U/mL streptomycin (Sigma) were added. Cultures were maintained in a humidified incubator supplied with 5% CO2 at 37 °C. Experiments were performed in triplicates. When cultured HepG2 cells achieved 70–80% confluence their subculturing was conducted. For splitting, the cells attached to the walls of the culturing flask were washed with 1× phosphate buffer saline (PBS) and incubated with 0.05% trypsin-EDTA until cells detached from the surface of culturing flask. The detachment of the cells was confirmed by observing the flask under the inverted microscope. A few drops of FBS were added to the flask and mixed well by stirring. The mixture was centrifuged at 2000 rpm for 5 min. After centrifugation the supernatant was removed, and pellet was resuspended. HepG2 cells were cultured onto 96-well plates for measurement of cell viability. Treatment was given for both compounds at a concentration of 0–1000 µg/mL for 24 h.
(§4) After 4 h formazan crystals were solubilized with 10% sodium dodecylsulphate (SDS) (Invitrogen Inc.) and absorbance was taken at 570 nm. Percentage viability was calculated according to the following formula:% Viable cells = ((abs sample − abs blank) / (abs control − abs blank)) × 100 (1) where abs stands for absorbance.

The subject of another series is HepG2 cells. In words: In vitro cytotoxicity, MTT assay. Format: cell-based. The following applies: HepG2, MTT, 0–1000 µg/mL, 24 h. As for the experimental part:
as §2, §3, §4

Where “and” joins values, the source holds several entries; their conditions need not be identical. Identical values can stand only once. A value given as a limit tells only on which side of the number the result lay.

Butyrylcholinesterase (BChE), sequence (P81908 whole entry): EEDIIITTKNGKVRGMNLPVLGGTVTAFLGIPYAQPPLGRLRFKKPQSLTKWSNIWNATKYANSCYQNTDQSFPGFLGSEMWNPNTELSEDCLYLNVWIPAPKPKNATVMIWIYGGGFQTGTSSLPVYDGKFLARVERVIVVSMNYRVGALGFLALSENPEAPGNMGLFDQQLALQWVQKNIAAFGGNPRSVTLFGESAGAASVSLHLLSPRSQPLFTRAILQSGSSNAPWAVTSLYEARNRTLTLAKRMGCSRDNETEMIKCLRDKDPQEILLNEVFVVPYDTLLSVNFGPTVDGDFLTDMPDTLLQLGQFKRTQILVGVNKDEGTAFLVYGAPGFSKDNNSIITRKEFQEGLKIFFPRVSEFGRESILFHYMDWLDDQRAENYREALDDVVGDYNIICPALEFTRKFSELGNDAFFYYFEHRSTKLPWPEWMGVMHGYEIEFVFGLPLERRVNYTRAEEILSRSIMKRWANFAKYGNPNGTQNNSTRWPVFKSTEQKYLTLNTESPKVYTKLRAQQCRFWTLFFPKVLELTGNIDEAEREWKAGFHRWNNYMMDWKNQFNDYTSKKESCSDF
Acetylcholinesterase (AChE), sequence (O42275 24-633): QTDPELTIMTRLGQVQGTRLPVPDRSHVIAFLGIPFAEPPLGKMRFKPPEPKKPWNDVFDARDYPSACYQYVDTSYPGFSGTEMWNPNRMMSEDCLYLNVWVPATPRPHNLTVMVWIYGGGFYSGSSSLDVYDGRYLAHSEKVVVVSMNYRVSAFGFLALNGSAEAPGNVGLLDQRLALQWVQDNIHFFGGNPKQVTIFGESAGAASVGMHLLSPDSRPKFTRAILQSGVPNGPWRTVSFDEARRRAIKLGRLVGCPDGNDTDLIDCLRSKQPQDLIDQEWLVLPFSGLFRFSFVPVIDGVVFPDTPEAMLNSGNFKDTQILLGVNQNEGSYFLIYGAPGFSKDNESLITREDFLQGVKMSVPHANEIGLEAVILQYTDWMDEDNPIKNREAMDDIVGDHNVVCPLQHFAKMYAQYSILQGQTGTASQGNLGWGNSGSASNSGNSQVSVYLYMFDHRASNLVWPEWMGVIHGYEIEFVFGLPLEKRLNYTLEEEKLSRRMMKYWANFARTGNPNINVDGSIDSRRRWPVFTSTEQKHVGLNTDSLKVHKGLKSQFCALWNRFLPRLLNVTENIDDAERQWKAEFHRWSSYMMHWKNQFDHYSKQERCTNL

Consider `Cc1cccc2cc(C=NNC(=S)Nc3ccc(Cl)cc3)c(N3CCCCC3)nc12` [Compound 6g, N-(4-Chlorophenyl)-2-((8-methyl-2-(piperidin-1-yl)quinolin-3-yl)methylene)hydrazine carbothioamide], for which, in series [1], the IC50 is < 20 µM and 18.6 µM. Besides, in series [2], the concentration for half-maximal inhibition (IC50) was < 20 µM and 13.8 µM. Also, in series [3], the viability at 24 h, 50 μg/mL worked out at 113%; the viability at 24 h, 100 μg/mL turned out to be 106%; the viability at 24 h, 200 μg/mL stood at 111%; the viability at 24 h, 500 μg/mL was determined as 150%. Moreover, the viability at 24 h, 1000 μg/mL in series [3] was 214%. The Status result in the series on HepG2 cells was “Proliferative”.
With `Cc1ccc(NC(=S)NN=Cc2cc3cccc(C)c3nc2N2CCCCC2)c(C)c1` [Compound 6c, N-(2,4-Dimethylphenyl)-2-((8-methyl-2-(piperidin-1-yl)quinolin-3-yl)methylene)hydrazine carbothioamide], the IC50 in series [1] is 24.59 ± 0.09 µM. Besides, the IC50 in series [2] stood at 39.12 ± 0.27 µM. Further, in series [3], the viability at 24 h, 50 μg/mL was determined as 87.5%; the viability at 24 h, 100 μg/mL is 116%; the viability at 24 h, 200 μg/mL was 154%; the viability at 24 h, 500 μg/mL turned out to be 187%. Besides, the viability at 24 h, 1000 μg/mL in series [3] was found to be 233%. Besides, the Status result in the series on HepG2 cells was “Proliferative”.
